Consider 42 compounds from patent US10800765B2, “Indole derivative used as CRTH2 inhibitor” (CHIA TAI TIANQING PHARMACEUTICAL GROUP CO., LTD., priority 2016, dated 2020).

Molecules are shown by their SMILES.

This experiment deals with CRTH2 receptor (Homo sapiens (Human), UniProt Q9Y5Y4). The experiment can be described thus: PathHunter CHO-K1 CRTH2 β-arrestin antagonist assay (PGD2 agonist). It is filed as cell-based. The following applies: PathHunter CHO-K1 CRTH2 β-arrestin cells; 30 min compound pre-incubation, then EC80 PGD2 for 90 min; chemiluminescence. The method, then: PathHunter® CHO-K1 CRTH2 β-arrestin cells (DiscoverX, catalogue number 93-0291C2) grew under standard conditions, and were inoculated into a white-wall 384-well microplate at a density of 5,000 cells/well. 20 μL of Cell Plating Reagent 1 was used in each well. Before the test, the cells were incubated overnight at 37° C./5% CO2. A test compound was serially diluted in DMSO with a dilution factor of 3-fold to give 8 concentrations of the test compound. Shortly before the test, the serially diluted test compound was further diluted with the test buffer to 5 times of the test concentration. 5 μL of the further diluted test compound was added to the cells, and the cells were incubated for 30 min at 37° C. The concentration of the solvent was 1%. 5 μL of 6×EC80 agonist (PGD2) buffer was added to the cells, and the cells were incubated for 90 min at 37° C. Measured signals were generated by one-time addition of 15 μL (50% v/v) of PathHunter detection mixture reagent and subsequent one-hour incubation. The microplate was read through the chemiluminescent signals of PerkinElmer Envision™ reader. Biological activity of the test compound was analyzed by CBIS data analysis suite (ChemInnovation, CA), and was denoted as IC50 value.
Sequence of CRTH2 receptor (Q9Y5Y4 whole entry): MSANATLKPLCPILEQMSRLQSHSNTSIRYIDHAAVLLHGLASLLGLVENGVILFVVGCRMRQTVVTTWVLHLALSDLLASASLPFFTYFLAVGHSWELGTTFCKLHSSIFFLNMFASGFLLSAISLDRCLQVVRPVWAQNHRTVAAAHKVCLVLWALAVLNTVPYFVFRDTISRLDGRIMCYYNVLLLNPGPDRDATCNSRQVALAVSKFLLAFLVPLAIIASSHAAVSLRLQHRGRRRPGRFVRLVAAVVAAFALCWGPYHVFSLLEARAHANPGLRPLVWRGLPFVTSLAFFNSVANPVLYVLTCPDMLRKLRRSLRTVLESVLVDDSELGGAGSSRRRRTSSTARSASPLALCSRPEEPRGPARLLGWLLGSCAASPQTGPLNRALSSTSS

Usually IC50 stands for the concentration needed to halve the response being measured. Low values mean higher potency, high ones lower potency.

Compound `Cc1c(C2CS(=O)(=O)c3ccccc32)c2cc(F)ccc2n1CC(=O)O` (stereo not drawn) [Example 2] came in with an IC50 of 100 to 1000 nM.

The compound `Cc1c(C2=CS(=O)(=O)c3ccccc32)c2ccc(F)cc2n1CC(=O)O` [Example 3] displayed an IC50 of 100 to 1000 nM.

`Cc1c(C2=CS(=O)(=O)c3ccccc32)c2cc(Cl)ccc2n1CC(=O)O` [Example 5]: the concentration for half-maximal inhibition (IC50) fell in the range of 100 to 1000 nM.

For `Cc1c(C2=CCCS(=O)(=O)c3ccccc32)c2cc(F)ccc2n1CC(=O)O` [Example 9], the half-inhibitory concentration (IC50) was 100 to 1000 nM.

For the compound `Cc1c(C2=CS(=O)(=O)c3ccncc32)c2cc(F)ccc2n1CC(=O)O` [Example 10], the IC50 was 100 to 1000 nM.

In the case of `Cc1c(C2=CS(=O)(=O)c3ncccc32)c2cc(F)ccc2n1CC(=O)O` [Example 11], the IC50 is 100 to 1000 nM.

`Cc1c(C2=CS(=O)(=O)c3ccc(C(F)(F)F)cc32)c2cc(F)ccc2n1CC(=O)O` [Example 12] gave a 50% inhibitory concentration (IC50) of 100 to 1000 nM.

Regarding `Cc1ccc2c(c1)c(C1=CS(=O)(=O)c3ccc(C(F)(F)F)cc31)c(C)n2CC(=O)O` [Example 15], the IC50 was in the range of 100 to 1000 nM.

`Cc1c(C2=CS(=O)(=O)c3ccc(C(F)(F)F)cc32)c2ccc(F)cc2n1CC(=O)O` [Example 16]: the IC50 lay within 100 to 1000 nM.

As for `Cc1c(C2=CS(=O)(=O)c3cc(C(F)(F)F)ccc32)c2cc(Cl)ccc2n1CC(=O)O` [Example 17], the IC50 was in the range of 100 to 1000 nM.

As to `Cc1c(C2=CS(=O)(=O)c3cc(C(F)(F)F)ccc32)c2ccc(Cl)cc2n1CC(=O)O` [Example 18], the concentration for half-maximal inhibition (IC50) lay in the range of 100 to 1000 nM.

For the compound `Cc1ccc2c(c1)c(C1=CS(=O)(=O)c3cc(C(F)(F)F)ccc31)c(C)n2CC(=O)O` [Example 19], the half-inhibitory concentration (IC50) was 100 to 1000 nM.

`Cc1c(C2=CS(=O)(=O)c3cc(C(F)(F)F)ccc32)c2ccc(F)cc2n1CC(=O)O` [Example 20] showed an IC50 of 100 to 1000 nM.

As to `Cc1c(C2=CS(=O)(=O)c3cc(-c4ccncc4)ccc32)c2cc(F)ccc2n1CC(=O)O` [Example 21], the IC50 fell in the range of 100 to 1000 nM.

In the case of `Cc1c(C2=CS(=O)(=O)c3cc(S(C)(=O)=O)ccc32)c2cc(F)ccc2n1CC(=O)O` [Example 31], the half-maximal inhibitory concentration (IC50) was less than 100 nM.

The compound `Cc1c(C2=CS(=O)(=O)c3ccc(Cl)cc32)c2cc(F)ccc2n1CC(=O)O` [Example 33] yielded an IC50 of 100 to 1000 nM.

`Cc1c(C2=CS(=O)(=O)c3ccc(Cl)cc32)c2cc(Cl)ccc2n1CC(=O)O` [Example 34] yielded a concentration for half-maximal inhibition (IC50) of 100 to 1000 nM.

The compound `Cc1c(C2=CS(=O)(=O)c3ccc(Cl)cc32)c2ccc(C(F)(F)F)cc2n1CC(=O)O` [Example 38] displayed an IC50 of 100 to 1000 nM.

Consider `Cc1c(Cc2ccc3c(c2)CCS3(=O)=O)c2cc(F)ccc2n1CC(=O)O` [Example 43], for which the IC50 was less than 100 nM.

For the compound `Cc1c(Cc2ccc3c(c2)C=CS3(=O)=O)c2cc(F)ccc2n1CC(=O)O` [Example 44], the IC50 was in the range of 100 to 1000 nM.

In the case of `Cc1c(C(C)C2=CS(=O)(=O)c3ccccc32)c2cc(F)ccc2n1CC(=O)O` (stereo not drawn) [Example 45], the IC50 was 100 to 1000 nM.

With `Cc1c(Cc2ccc3c(c2)C(F)C(F)(F)S3(=O)=O)c2cc(F)ccc2n1CC(=O)O` (stereo not drawn) [Example 46], the IC50 was 100 to 1000 nM.

Compound `Cc1c(Cc2ccc3c(c2)N(C)S(=O)(=O)C=C3)c2cc(F)ccc2n1CC(=O)O` [Example 48] returned a concentration for half-maximal inhibition (IC50) of 100 to 1000 nM.

For the compound `Cc1c(Cc2cccc3c2CCS3(=O)=O)c2cc(F)ccc2n1CC(=O)O` [Example 49], the concentration for half-maximal inhibition (IC50) lay in the range of 100 to 1000 nM.

In turn, `Cc1c(Cc2ccc3c(c2)CCS3(=O)=O)c2ccccc2n1CC(=O)O` [Example 50] returned a half-inhibitory concentration (IC50) of 100 to 1000 nM.

With `Cc1c(Cc2ccc3c(c2)CCS3(=O)=O)c2cc(Cl)ccc2n1CC(=O)O` [Example 51], the IC50 was in the range of 100 to 1000 nM.

For the compound `Cc1ccc2c(c1)c(Cc1ccc3c(c1)CCS3(=O)=O)c(C)n2CC(=O)O` [Example 52], the concentration for half-maximal inhibition (IC50) lay within 100 to 1000 nM.

In turn, `Cc1c(Cc2ccc3c(c2)CCS3(=O)=O)c2ccc(Cl)cc2n1CC(=O)O` [Example 54] yielded an IC50 greater than 1000 nM.

Regarding `Cc1c(Cc2ccc3c(c2)CCS3(=O)=O)c2cc(Br)ccc2n1CC(=O)O` [Example 55], the IC50 was 100 to 1000 nM.

`Cc1c(Cc2ccc3c(c2)CCS3(=O)=O)c2cc([N+](=O)[O-])ccc2n1CC(=O)O` [Example 57]: the IC50 lay within 100 to 1000 nM.

Consider `CC(=O)Nc1ccc2c(c1)c(Cc1ccc3c(c1)CCS3(=O)=O)c(C)n2CC(=O)O` [Example 59], for which the 50% inhibitory concentration (IC50) was greater than 1000 nM.

In turn, `O=C(O)Cn1cc(Cc2ccc3c(c2)CCS3(=O)=O)c2cc(F)ccc21` [Example 60] came in with a half-maximal inhibitory concentration (IC50) of 100 to 1000 nM.

Compound `Cc1c(Cc2cc3c(cc2C(F)(F)F)S(=O)(=O)CC3)c2cc(F)ccc2n1CC(=O)O` [Example 61] showed an IC50 of 100 to 1000 nM.

Consider `Cc1c(Cc2cc3c(cc2C(F)(F)F)S(=O)(=O)CCC3(F)F)c2cc(F)ccc2n1CC(=O)O` [Example 63], for which the half-inhibitory concentration (IC50) fell in the range of 100 to 1000 nM.

The compound `Cc1c(Cc2cc3c(cc2C(F)(F)F)S(=O)(=O)N(C)CC3(F)F)c2cc(F)ccc2n1CC(=O)O` [Example 64] came in with a half-maximal inhibitory concentration (IC50) of 100 to 1000 nM.

In turn, `Cc1c(Cc2ccc3c(n2)C(F)(F)CCS3(=O)=O)c2cc(F)ccc2n1CC(=O)O` [Example 65] showed a half-maximal inhibitory concentration (IC50) of less than 100 nM.

`Cc1c(Cc2ccc3c(c2)N=CNS3(=O)=O)c2cc(F)ccc2n1CC(=O)O` [Example 66]: the IC50 was less than 100 nM.

`Cc1c(Cc2ccc3c(c2)N(C)CN(C2CC2)S3(=O)=O)c2cc(F)ccc2n1CC(=O)O` [Example 70] yielded an IC50 of less than 100 nM.

On to `Cc1c(Cc2ccc3c(c2)S(=O)(=O)CC3)c2cc(F)ccc2n1CC(=O)O` [Example 74], for which the IC50 was 100 to 1000 nM.

Regarding `Cc1c(Cc2cccc3c2S(=O)(=O)CC3)c2cc(F)ccc2n1CC(=O)O` [Example 75], the IC50 was 100 to 1000 nM.

For `Cc1c(Cc2cc3c(cc2F)S(=O)(=O)N(C)CC3(F)F)c2cc(F)ccc2n1CC(=O)O` [Example 78], the 50% inhibitory concentration (IC50) lay in the range of 100 to 1000 nM.

The compound `Cc1c(Cc2ccc3c(c2)C(F)(F)CCS3(=O)=O)c2ncccc2n1CC(=O)O` [Example 80] yielded an IC50 of 100 to 1000 nM.
